Reference: the supplement of paper PMC11061612

Key:
RVH-421 (Melanoma) [1] = assay: Bliss excess, mean over the matrix (fraction); higher = more synergy
Outline: (§1)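 Bliss excess equals the observed combination effect minus the expected value EA + EB − EA·EB, where EA and EB are the effects of each agent alone. Combination Emax is the second-highest inhibition within the matrix. Inhibition was scaled from CellTiter-Glo 2.0 luminescence, with 0 set by vehicle wells and 1 by blank wells, after 72 hours of two-drug dosing of cells plated in 1536-well plates.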

[2] = test system: ATN-1 (T-Lymphoblastic Leukemia); assay: combination Emax (second highest fraction inhibited in the dose matrix, 72 h); higher = more inhibition; extreme values may be limits of the assay
Outline: as §1

C32 (Melanoma) = assay: as above
Outline: as §1

[3] = test system: Daudi (Burkitt's Lymphoma); assay: as above
Outline: as §1

[4] = test system: IGROV-1 (Ovarian Carcinoma); assay: as above
Outline: as §1

[5] = test system: KNS-62 (Squamous Cell Lung Carcinoma); assay: as above
Outline: as §1

[6] = test system: L-363 (Plasma Cell Myeloma); assay: as above
Outline: as §1

[7] = test system: MDA-MB-175-VII (Breast Carcinoma); assay: as above
Outline: as §1

[8] = test system: NCI-H2009 (Lung Adenocarcinoma); assay: as above
Outline: as §1

[9] = test system: NCI-H2170 (Squamous Cell Lung Carcinoma); assay: as above
Outline: as §1

NCI-H2452 (Mesothelioma) = assay: as above
Outline: as §1

[10] = test system: NTERA-2-cl-D1 (Other Solid Carcinomas); assay: as above
Outline: as §1

[11] = test system: OCI-M1 (Acute Myeloid Leukemia); assay: as above
Outline: as §1

[12] = test system: RS4-11 (B-Lymphoblastic Leukemia); assay: as above
Outline: as §1

RVH-421 (Melanoma) [13] = assay: as above
Outline: as §1

[14] = test system: SBC-5 (Small Cell Lung Carcinoma); assay: as above
Outline: as §1

| SMILES | Bliss excess (RVH-421 (Melanoma) [1]) | combination Emax [2] | combination Emax (C32 (Melanoma)) | combination Emax [3] | combination Emax [4] | combination Emax [5] | combination Emax [6] | combination Emax [7] | combination Emax [8] | combination Emax [9] | combination Emax (NCI-H2452 (Mesothelioma)) | combination Emax [10] | combination Emax [11] | combination Emax [12] | combination Emax (RVH-421 (Melanoma) [13]) | combination Emax [14] |
| --- | --- | --- | --- | --- | --- | --- | --- | --- | --- | --- | --- | --- | --- | --- | --- | --- |
| CN(CCO)CC[C@H](CSc1ccccc1)Nc1ccc(S(=O)(=O)NC(=O)c2ccc(N3CCC([C@@H](O)c4ccccc4-c4ccc(Cl)cc4)CC3)cc2)cc1S(=O)(=O)C(F)(F)F [AZD4320] + C1CN(CCC1(C(=O)N[C@@H](CCO)C2=CC=C(C=C2)Cl)N)C3=NC=NC4=C3C=CN4 [Capivasertib] (first compound max 1 µM, 7x7, partner max 3 µM) | -0.0454 | 0.715 | 0.257 | 0.16 | 0.767 | 0.232 | 0.376 | 0.799 | 0.0559 | 0.772 | 0.202 | 0.409 | 0.984 | 1 | 0.486 | 0.175 |
| CN(CCO)CC[C@H](CSc1ccccc1)Nc1ccc(S(=O)(=O)NC(=O)c2ccc(N3CCC([C@@H](O)c4ccccc4-c4ccc(Cl)cc4)CC3)cc2)cc1S(=O)(=O)C(F)(F)F [AZD4320] + C=CCn1c(=O)c2cnc(Nc3ccc(N4CCN(C)CC4)cc3)nc2n1-c1cccc(C(C)(C)O)n1 [AZD1775] (first compound max 1 µM, partner max 1 µM) | 0.0274 | 0.982 | 0.639 | 0.336 | 0.894 | 0.363 | 1 | 0.32 | 0.764 | 0.8 | 0.737 | 0.775 | 1 | 1 | 0.442 | 0.406 |
| CN(CCO)CC[C@H](CSc1ccccc1)Nc1ccc(S(=O)(=O)NC(=O)c2ccc(N3CCC([C@@H](O)c4ccccc4-c4ccc(Cl)cc4)CC3)cc2)cc1S(=O)(=O)C(F)(F)F [AZD4320] + CN(C)CCCOc1ccc(-c2ccc3ncc4c(c3c2)n(C2CCOCC2)c(=O)n4C)cn1 [AZD0156] (first compound max 1 µM, 7x7, partner max 1 µM) | -0.0254 | 0.656 | 0.284 | 0.119 | 0.611 | 0.125 | 0.263 | 0.224 | 0.0839 | 0.613 | 0.246 | 0.416 | 0.988 | 1 | 0.164 | 0.102 |
| CN(CCO)CC[C@H](CSc1ccccc1)Nc1ccc(S(=O)(=O)NC(=O)c2ccc(N3CCC([C@@H](O)c4ccccc4-c4ccc(Cl)cc4)CC3)cc2)cc1S(=O)(=O)C(F)(F)F [AZD4320] + C[C@@H](Nc1cc(F)cc(F)c1)c1cc(C(=O)N(C)C)cc2c(=O)cc(N3CCOCC3)oc12 [AZD8186] (first compound max 1 µM, 7x7, partner max 3 µM) | 0.0798 | 0.807 | 0.681 | 0.771 | 0.832 | 0.382 | 0.249 | 0.453 | 0.553 | 0.764 | 0.364 | 0.976 | 1 | 1 | 0.464 | 0.41 |
| CN(CCO)CC[C@H](CSc1ccccc1)Nc1ccc(S(=O)(=O)NC(=O)c2ccc(N3CCC([C@@H](O)c4ccccc4-c4ccc(Cl)cc4)CC3)cc2)cc1S(=O)(=O)C(F)(F)F [AZD4320] + Cn1cnc2c(F)c(Nc3ccc(Br)cc3Cl)c(C(=O)NOCCO)cc21 [Selumetinib] (first compound max 1 µM, 7x7, partner max 3 µM) | 0.106 | 0.732 | 0.975 | 0.65 | 0.612 | 0.399 | 0.212 | 0.598 | 0.606 | 0.676 | 0.346 | 0.987 | 1 | 1 | 0.643 | 0.245 |
| Cc1c2c(nn1C)CSCc1cc(n(C)n1)CSc1cc(c3ccccc3c1)OCCCc1c(C(=O)O)n(C)c3c-2c(Cl)ccc13 [AZD5991] + C1CN(CCC1(C(=O)N[C@@H](CCO)C2=CC=C(C=C2)Cl)N)C3=NC=NC4=C3C=CN4 [Capivasertib] (first compound max 1 µM, 7x7, partner max 3 µM) | -0.0513 | 0.989 | 0.266 | 0.348 | 0.767 | 0.31 | 1 | 0.488 | 0.158 | 0.415 | 0.253 | 0.529 | 0.115 | 0.519 | 0.411 | 0.471 |
| Cc1c2c(nn1C)CSCc1cc(n(C)n1)CSc1cc(c3ccccc3c1)OCCCc1c(C(=O)O)n(C)c3c-2c(Cl)ccc13 [AZD5991] + C=CCn1c(=O)c2cnc(Nc3ccc(N4CCN(C)CC4)cc3)nc2n1-c1cccc(C(C)(C)O)n1 [AZD1775] (first compound max 1 µM, partner max 1 µM) | 0.0088 | 1 | 0.568 | 0.706 | 0.88 | 0.223 | 1 | 0.216 | 0.75 | 0.749 | 0.623 | 0.82 | 0.921 | 0.995 | 0.248 | 0.694 |
| Cc1c2c(nn1C)CSCc1cc(n(C)n1)CSc1cc(c3ccccc3c1)OCCCc1c(C(=O)O)n(C)c3c-2c(Cl)ccc13 [AZD5991] + CCN(CCO)CCCOc1ccc2c(Nc3cc(CC(=O)Nc4cccc(F)c4)[nH]n3)ncnc2c1 [AZD2811] (first compound max 1 µM, 7x7, partner max 1 µM) | -0.0055 | 0.976 | 0.445 | 0.806 | 0.346 | 0.244 | 1 | 0.288 | 0.754 | 0.655 | 0.452 | 0.821 | 0.285 | 0.991 | 0.214 | 0.78 |
| Cc1c2c(nn1C)CSCc1cc(n(C)n1)CSc1cc(c3ccccc3c1)OCCCc1c(C(=O)O)n(C)c3c-2c(Cl)ccc13 [AZD5991] + CN(C)CCCOc1ccc(-c2ccc3ncc4c(c3c2)n(C2CCOCC2)c(=O)n4C)cn1 [AZD0156] (first compound max 1 µM, 7x7, partner max 1 µM) | 0.0113 | 0.929 | 0.24 | 0.288 | 0.606 | 0.174 | 1 | 0.209 | 0.182 | 0.317 | 0.372 | 0.589 | 0.203 | 0.565 | 0.284 | 0.497 |
| Cc1c2c(nn1C)CSCc1cc(n(C)n1)CSc1cc(c3ccccc3c1)OCCCc1c(C(=O)O)n(C)c3c-2c(Cl)ccc13 [AZD5991] + C[C@@H]1COCCN1C2=NC(=NC(=C2)C3(CC3)[S@](=N)(=O)C)C4=C5C=CNC5=NC=C4 [AZD6738] (first compound max 1 µM, 7x7, partner max 10 µM) | 0.013 | 1 | 0.756 | 0.874 | 0.852 | 0.491 | 1 | 0.259 | 0.466 | 0.683 | 0.579 | 0.928 | 0.973 | 1 | 0.265 | 0.9 |
| Cc1c2c(nn1C)CSCc1cc(n(C)n1)CSc1cc(c3ccccc3c1)OCCCc1c(C(=O)O)n(C)c3c-2c(Cl)ccc13 [AZD5991] + C[C@@H](Nc1cc(F)cc(F)c1)c1cc(C(=O)N(C)C)cc2c(=O)cc(N3CCOCC3)oc12 [AZD8186] (first compound max 1 µM, 7x7, partner max 3 µM) | -0.0204 | 0.945 | 0.251 | 0.427 | 0.8 | 0.17 | 1 | 0.313 | 0.165 | 0.275 | 0.357 | 0.682 | 0.0662 | 0.591 | 0.517 | 0.845 |
| Cc1c2c(nn1C)CSCc1cc(n(C)n1)CSc1cc(c3ccccc3c1)OCCCc1c(C(=O)O)n(C)c3c-2c(Cl)ccc13 [AZD5991] + Cc1cc2ncnn2cc1Nc1ncc2c(n1)n(C1CCOCC1)c(=O)n2C [AZD7648] (first compound max 1 µM, 7x7, partner max 10 µM) | -0.0432 | 0.925 | 0.198 | 0.328 | 0.625 | 0.277 | 1 | 0.263 | 0.147 | 0.397 | 0.409 | 0.662 | 0.145 | 0.501 | 0.255 | 0.419 |
| C[C@@H]1COCCN1c1cc(C2([S@](C)(=N)=O)CC2)nc(-c2ccnc3[nH]ccc23)n1 [AZD6738] + O=C(c1cc(Cc2n[nH]c(=O)c3ccccc23)ccc1F)N1CCN(C(=O)C2CC2)CC1 [Olaparib] (first compound max 10 µM, 7x7, partner max 10 µM) | -0.0324 | 1 | 0.694 | 0.828 | 0.704 | 0.413 | 0.854 | 0.352 | 0.478 | 0.71 | 0.469 | 0.894 | 0.982 | 0.979 | 0.215 | 0.789 |
